According to US11910798B2, “Compositions including a vacancy-engineered (VE)-ZnO nanocomposite, methods of making the compositions and methods of using the compositions” (priority 2015, dated 2024):

Test system: E. coli
Test: MIC against E. coli
Format: cell-based
Conditions: Escherichia coli, read-out: MIC (μg/mL) in metallic Zn or Cu
Source text: Table 1 illustrates the minimum inhibitory concentration against E. coli for various agents.

Structure (SMILES): O=C([O-])c1ccccc1O.[Na+] [Capping Agent, sodium salicylate]
- MIC: 3000 µg/mL
